Experiment [1] relates to SK-OV-3. As to the kind of experiment: Antiproliferative activity against human SK-OV-3 cells assessed as reduction in cell growth by SRB assay. It is filed as functional, cell-based.
In experiment [2] the target is Poly [ADP-ribose] polymerase 1 (Homo sapiens, UniProt P09874). As to the kind of experiment: Inhibition of PARP1 (unknown origin).

Our source for the IC50 values is ChEMBL document CHEMBL6087466, “The Potential of PARP Inhibitors as Antitumor Drugs and the Perspective of Molecular Design” (J Med Chem, 2025).

Structures are written as SMILES.

Chain of Poly [ADP-ribose] polymerase 1 (P09874 whole entry): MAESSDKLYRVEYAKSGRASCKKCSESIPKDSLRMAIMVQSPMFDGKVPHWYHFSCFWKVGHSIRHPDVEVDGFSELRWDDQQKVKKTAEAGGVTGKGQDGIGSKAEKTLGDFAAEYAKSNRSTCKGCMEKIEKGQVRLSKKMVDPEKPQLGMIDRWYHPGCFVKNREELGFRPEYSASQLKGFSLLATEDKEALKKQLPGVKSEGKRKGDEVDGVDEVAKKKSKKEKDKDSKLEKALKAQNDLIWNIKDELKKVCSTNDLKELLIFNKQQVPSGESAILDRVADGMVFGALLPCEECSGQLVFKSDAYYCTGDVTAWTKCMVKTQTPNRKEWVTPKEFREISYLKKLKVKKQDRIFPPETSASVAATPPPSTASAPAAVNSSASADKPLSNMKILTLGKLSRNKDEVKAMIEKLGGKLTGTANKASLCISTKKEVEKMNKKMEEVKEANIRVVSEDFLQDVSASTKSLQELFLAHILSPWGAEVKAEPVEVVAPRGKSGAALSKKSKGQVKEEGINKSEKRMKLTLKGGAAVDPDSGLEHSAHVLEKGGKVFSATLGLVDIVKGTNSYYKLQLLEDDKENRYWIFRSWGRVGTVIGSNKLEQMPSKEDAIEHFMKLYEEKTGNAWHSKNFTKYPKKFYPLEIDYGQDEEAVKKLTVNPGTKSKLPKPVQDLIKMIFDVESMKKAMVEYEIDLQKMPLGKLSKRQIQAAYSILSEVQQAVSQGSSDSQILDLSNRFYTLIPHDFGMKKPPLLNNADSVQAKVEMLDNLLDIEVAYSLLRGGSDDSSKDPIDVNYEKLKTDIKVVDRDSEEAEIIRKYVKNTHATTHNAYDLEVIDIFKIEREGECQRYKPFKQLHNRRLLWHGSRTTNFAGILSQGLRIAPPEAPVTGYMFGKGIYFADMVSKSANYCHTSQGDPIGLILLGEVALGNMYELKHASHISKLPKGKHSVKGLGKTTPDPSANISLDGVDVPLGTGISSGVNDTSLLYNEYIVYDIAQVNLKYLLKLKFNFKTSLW

Usually IC50 stands for the midpoint of a concentration-inhibition curve. In the case of `CCNC(=S)N/N=C/c1ccc(-c2nc3c(oc4ccccc43)c(=O)[nH]2)cc1`, the IC50 was determined as 4980 nM in experiment [1] and 26 nM in experiment [2].

As for `NC(=O)c1cccc2[nH]c(CCCCCCOc3cc(O)c4c(=O)cc(-c5ccccc5)oc4c3)nc12`, the IC50 in experiment [2] was 93 nM.

Compound `N#Cc1ccc(N2CCN([C@H]3C=C(c4cc5ncccc5c(=O)[nH]4)CC3)CC2)cc1` displayed an IC50 in experiment [2] of 1 nM.
